Measured values as given in patent publication US12539292B2, “BRM targeting compounds and associated methods of use” (Arvinas Operations, Inc., priority 2018, dated 2026).
Like-named read-outs stand apart in the source and are kept apart here.

Molecular target: T1, BRM (Homo sapiens, UniProt P51531)
T1 construct: In-Cell Western Screen of BRM Degradation in SW1573 Cells; endogenous in cells; host or cells: SW1573
Assay: In-cell Western screen of BRM degradation in SW1573 cells (Dmax and DC50)
Type: cell-based
Method in brief: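 Near-infrared imaging on a LI-COR Odyssey (800 and 680 nm channels) quantifies BRM remaining in fixed SW1573 cells. Cells are dosed for 18-20 h at 0.1% final DMSO, and degradation is expressed as Dmax and DC50.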

[1] = SW1573, % degraded, when tested at the top concentration of between 0.3 and 10 μM, read-out: BRM Dmax (%)
[2] = target protein degradation, read-out: BRM DC50
[3] = BRM degradation, SW1573 cells, read-out: DC50

T1 sequence (P51531 whole entry): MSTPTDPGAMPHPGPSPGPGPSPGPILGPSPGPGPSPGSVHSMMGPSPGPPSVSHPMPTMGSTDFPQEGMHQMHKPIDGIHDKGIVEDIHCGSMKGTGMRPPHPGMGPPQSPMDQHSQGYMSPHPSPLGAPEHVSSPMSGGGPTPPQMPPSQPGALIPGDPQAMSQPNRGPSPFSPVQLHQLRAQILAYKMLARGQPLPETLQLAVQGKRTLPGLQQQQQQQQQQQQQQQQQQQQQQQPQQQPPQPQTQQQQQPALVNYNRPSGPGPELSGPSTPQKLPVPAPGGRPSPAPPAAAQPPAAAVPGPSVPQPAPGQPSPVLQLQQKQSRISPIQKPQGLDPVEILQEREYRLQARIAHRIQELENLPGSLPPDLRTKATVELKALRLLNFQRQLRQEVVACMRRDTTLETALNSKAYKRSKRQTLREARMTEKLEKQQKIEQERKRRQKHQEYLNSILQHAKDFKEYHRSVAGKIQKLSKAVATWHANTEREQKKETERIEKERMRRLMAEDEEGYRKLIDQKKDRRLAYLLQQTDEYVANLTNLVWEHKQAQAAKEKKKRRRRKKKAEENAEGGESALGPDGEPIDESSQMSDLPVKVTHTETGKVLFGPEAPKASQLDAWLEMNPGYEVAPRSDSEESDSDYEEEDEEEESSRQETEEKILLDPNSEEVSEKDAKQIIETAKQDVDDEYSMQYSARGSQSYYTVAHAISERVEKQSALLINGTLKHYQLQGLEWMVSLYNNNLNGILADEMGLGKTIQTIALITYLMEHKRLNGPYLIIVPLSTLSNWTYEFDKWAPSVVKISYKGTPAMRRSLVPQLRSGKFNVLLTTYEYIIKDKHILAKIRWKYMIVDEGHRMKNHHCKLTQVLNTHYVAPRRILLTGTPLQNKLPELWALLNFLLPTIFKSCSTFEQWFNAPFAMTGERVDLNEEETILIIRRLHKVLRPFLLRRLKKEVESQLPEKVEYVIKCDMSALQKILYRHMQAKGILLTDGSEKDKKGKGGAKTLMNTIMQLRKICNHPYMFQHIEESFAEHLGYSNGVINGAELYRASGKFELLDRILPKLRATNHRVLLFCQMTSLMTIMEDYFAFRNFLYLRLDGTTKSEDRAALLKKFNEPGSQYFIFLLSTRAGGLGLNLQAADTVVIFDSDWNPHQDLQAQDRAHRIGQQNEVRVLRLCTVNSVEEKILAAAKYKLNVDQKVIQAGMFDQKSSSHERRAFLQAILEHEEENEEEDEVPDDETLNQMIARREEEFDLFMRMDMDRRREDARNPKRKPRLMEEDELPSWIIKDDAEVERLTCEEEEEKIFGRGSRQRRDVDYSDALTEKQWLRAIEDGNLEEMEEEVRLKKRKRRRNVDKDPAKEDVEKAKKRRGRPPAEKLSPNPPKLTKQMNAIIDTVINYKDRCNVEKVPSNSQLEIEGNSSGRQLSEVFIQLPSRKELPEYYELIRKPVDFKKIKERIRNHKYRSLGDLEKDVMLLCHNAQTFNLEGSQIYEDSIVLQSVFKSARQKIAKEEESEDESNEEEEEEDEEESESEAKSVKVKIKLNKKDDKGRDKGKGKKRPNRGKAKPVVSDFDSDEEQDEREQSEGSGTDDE

| Dmax [1] | DC50 [2] | SMILES | DC50 [3] | further results |
| --- | --- | --- | --- | --- |
| > 75% | < 2.5 nM | Cc1ncsc1-c1ccc([C@H](C)NC(=O)[C@@H]2C[C@@H](O)CN2C(=O)[C@H](c2cc(OCCC3CCN(C(=O)[C@H]4C[C@@H](CN5CCC(n6cc(-c7cc(-c8ccccc8O)nnc7N)cn6)CC5)C4)CC3)no2)C(C)C)cc1 [compound 465, (2S,4R)-1-((S)-2-(3-(2-(1-((1s,3R)-3-((4-(4-(3-amino-6-(2-hydroxyphenyl)pyridazin-4-yl)-1H-pyrazol-1-yl)piperidin-1-yl)methyl)cyclobutane-1-carbonyl)piperidin-4-yl)ethoxy)isoxazol-5-yl)-3-methylbutanoyl)-4-hydroxy-N-((S)-1-(4-(4-methylthiazol-5-yl)phenyl)ethyl)pyrrolidine-2-carboxamide] | – | – |
| > 75% | < 2.5 nM | Cc1ncsc1-c1ccc([C@H](C)NC(=O)[C@@H]2C[C@@H](O)CN2C(=O)[C@H](c2cc(OCCC3CCN(C(=O)[C@H]4C[C@H](CN5CCC(n6cc(-c7cc(-c8ccccc8O)nnc7N)cn6)CC5)C4)CC3)no2)C(C)C)cc1 [compound 467, (2S,4R)-1-((S)-2-(3-(2-(1-((1r,3S)-3-((4-(4-(3-amino-6-(2-hydroxyphenyl)pyridazin-4-yl)-1H-pyrazol-1-yl)piperidin-1-yl)methyl)cyclobutane-1-carbonyl)piperidin-4-yl)ethoxy)isoxazol-5-yl)-3-methylbutanoyl)-4-hydroxy-N-((S)-1-(4-(4-methylthiazol-5-yl)phenyl)ethyl)pyrrolidine-2-carboxamide] | – | – |
| – | – | Cc1ncsc1-c1ccc([C@H](C)NC(=O)[C@@H]2C[C@@H](O)CN2C(=O)[C@H](c2cc(OCCC3CCN(C[C@H]4C[C@H](N5CCC(C(C)n6cc(-c7cc(-c8ccccc8O)nnc7N)cn6)CC5)C4)CC3)no2)C(C)C)cc1 (stereo partly drawn) [compound 619, (2S,4R)-1-((2S)-2-(3-(2-(1-(((1r,3S)-3-(4-(1-(4-(3-amino-6-(2-hydroxyphenyl)pyridazin-4-yl)-1H-pyrazol-1-yl)ethyl)piperidin-1-yl)cyclobutyl)methyl)piperidin-4-yl)ethoxy)isoxazol-5-yl)-3-methylbutanoyl)-4-hydroxy-N-((S)-1-(4-(4-methylthiazol-5-yl)phenyl)ethyl)pyrrolidine-2-carboxamide] | – | DC50 (BRM degradation, SW1573 cells, Table 2D, read-out: *DC50): > 30 nM |
| – | – | Cc1ncsc1-c1ccc(CNC(=O)[C@@H]2C[C@@H](O)CN2C(=O)[C@H](c2cc(CCCOCCOCCOCCn3cc(-c4cc(-c5ccccc5O)nnc4N)cn3)no2)C(C)C)cc1 [compound 23, (2S,4R)-1-[(2S)-2-[3-(3-[2-[2-(2-[4-[3-amino-6-(2-hydroxyphenyl)pyridazin-4-yl]-1H-pyrazol-1-yl]ethoxy)ethoxy]ethoxy]propyl)-1,2-oxazol-5-yl]-3-methylbutanoyl]-4-hydroxy-N-[[4-(4-methyl-1,3-thiazol-5-yl)phenyl]methyl]pyrrolidine-2-carboxamide] | > 30 nM | Dmax (BRM degradation, SW1573 cells, when tested at the top concentration of between 0.3 and 10 μM, read-out: Dmax (%) (% degraded)): > 75% |
| – | – | Cc1cnnn1-c1ccc([C@H](C)NC(=O)[C@@H]2C[C@@H](O)CN2C(=O)[C@@H](c2cc(OCCN3CCN(CCOc4cc(N5C6CCC5CN(c5cc(-c7ccccc7O)nnc5N)C6)ccn4)CC3)no2)C(C)C)cc1 [compound 275, (2S,4R)-1-((2R)-2-(3-(2-(4-(2-((4-(3-(3-amino-6-(2-hydroxyphenyl)pyridazin-4-yl)-3,8-diazabicyclo[3.2.1]octan-8-yl)pyridin-2-yl)oxy)ethyl)piperazin-1-yl)ethoxy)isoxazol-5-yl)-3-methylbutanoyl)-4-hydroxy-N-((S)-1-(4-(5-methyl-1H-1,2,3-triazol-1-yl)phenyl)ethyl)pyrrolidine-2-carboxamide] | 10 to 30 nM | Dmax (BRM degradation, SW1573 cells, tested at the top concentration of between 0.3 and 10 μM, read-out: Dmax (%) (% degraded)): > 75% |
